In data set [1] the test system is SH-SY5Y cell.
From the text: PC12 Cell (Korean Cell Line Bank, Seoul, Korea) was maintained in the mixed solution of RPMI1640 (Welgene, Daegu, Korea) containing 1× Antibiotic-Antimycotic (GIBCO, N.Y., USA) and 10% FBS (Fetal Bovine Serum) (Welgene, Daegu, Korea). SH-SY5Y cell (Korean Cell Line Bank, Seoul, Korea) was maintained in the mixed solution of DMED/F12 (Welgene, Daegu, Korea) containing 1× Antibiotic-Antimycotic (GIBCO, N.Y., USA) and 10% FBS (Fetal Bovine Serum) (Welgene, Daegu, Korea). The PC12 and SH-SY5Y culture cells were maintained under the conditions of 100% humidity and 37° C. in the environment for supplying gas components with further 5% carbon dioxide.
It was performed according to a MTT [(3-(4,5-dimethylthiazol-2yl-2,5-diphenyl-2H-tetrazoilum bromide] experiment protocol. MTT was dissolved in PBS to be 5 mg/ml and then stored at 4° C. to use. After completing the reaction, 10 μl of 5 mg/ml MTT solution was added to 100 culture mixed solution of each well and then reacted for 3 hours. The supernatant of each well was discarded, and then a chromophoric reactant (Formazancrystal) was dissolved in 100 μl of DMSO; and then an absorbance was measured using ELISA reader (595 nm).
The PC12 cells were added to each of wells of Poly-D-lysine-coated 96-well tissue culture plate (Corning, Mass., USA) to be the cell concentration of 2×10^4 per well. […]
Data set [2] concerns the target T1, binding between the beta-amyloid 1-42 peptide and VEGF165 (Homo sapiens, UniProt P15692).
T1 construct: purchased R&D System, Inc. (VEGF165); Bachem AG (beta-amyloid)
T1 sequence (P15692 27-191 isoform P15692-4): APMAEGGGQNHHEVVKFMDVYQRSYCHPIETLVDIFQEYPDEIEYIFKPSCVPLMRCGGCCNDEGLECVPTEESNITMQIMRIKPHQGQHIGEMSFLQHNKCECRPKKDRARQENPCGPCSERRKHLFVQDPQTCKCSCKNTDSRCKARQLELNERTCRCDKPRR
The data set is described as follows: Protein chip screening of inhibitors of the binding between beta-amyloid and VEGF165. The settings on record: first screening, VEGF165 50 μg/ml, single concentration. As to the method: ProteoChip™ (Proteogen Inc., Seoul, Korea) was used as a substrate to fix a protein. A sheet paper was adhered on the substrate to prepare Well-Chip. A beta-amyloid (Bachem AG, Bubendorf, Switzerland) was diluted with a phosphate-buffered saline (PBS) containing 30% glycerol solution to be 50 μg/ml; then added to each well; reacted at 30° C. in a humidity incubator, overnight; the beta-amyloid remained after combining was washed with a phosphate-buffered saline containing 0.05% tween-20 (0.05% PBST); dried with a nitrogen gas; and then a high-speed-high throughput screening was performed.
A mixed solution was prepared by mixing VEGF165 (50 μg/ml) and 130 compounds (50 μM) derived from a natural material obtained in Example 1 in order to experiment the inhibition of the binding between the beta-amyloid and VEGF165. […]
The beta-amyloid-tagged protein chip prepared in Example 2 was blocked with 3% BSA for 2 hours; then washed with 0.05% PBST twice; and then dried with a nitrogen gas. […] It was washed with the washing solution; then dried using a nitrogen gas; a primary antibody was added to each of wells; then reacted at 30° C. in a humidity incubator for 30 minutes; washed with the washing solution; and then dried with the nitrogen gas to measure an inhibition ability of library by analyzing the binding degree with the relative fluorescence intensity using a fluorescence laser scanner. […]

Data set [3] concerns SH-SY5Y cell. Kind of data set: Inhibition of cytotoxicity of beta-amyloid by screened material (MTT assay). Format: cell-based. The settings on record: standard of 10 μM beta-amyloid, at more than 5 μM, 24 hours. As to the method:
The SH-SY5Y cells were added to 96-well tissue culture plate to be the cell concentration of 1×10^4 per well.
(In general: Formazan colour is commonly taken as a measure of viable cells.)

“beta-amyloid 1-42: forward-synthesized beta-amyloid 1-42 peptide”: the “survival rate of cell” value with SH-SY5Y cell [1] is “decreased in proportion as the concentration increase”.
As for heparin, in data set [2], the “inhibition of the interaction between beta-amyloid 1-42 peptide and VEGF165 (relative fluorescence intensity)” value is recorded as “inhibited”.
Turning to `NCCCS(=O)(=O)O` [Alzhemed™], the “survival rate of cell increased” value in the data set on SH-SY5Y cell [3] is “about 30%”.

The record behind these values is patent US20120101284A1, “METHOD FOR SCREENING INHIBITOR FOR INHIBITING INTERACTION BETWEEN BETA-AMYLOID PEPTIDE AND VEGF AND INHIBITOR SEARCHED BY THE SAME” (INNOPHARMASCREEN INC., priority 2009, published 2012).
